Patent US20100092526A1, “NANOEMULSION THERAPEUTIC COMPOSITIONS AND METHODS OF USING THE SAME” (NanoBio Corporation, priority 2008, published 2010)
In brackets after ≈: the same amount, converted by molar mass. Like-named read-outs stand apart in the source and are kept apart here.

Columns and labels:
Proteus mirabilis = assay: MIC/MBC of nanoemulsions against gram-negative isolates (CLSI, alamar blue); format: cell-based; details: Proteus mirabilis (n = 5)
[1] = tested on: Stenotrophomonas maltophilia; assay: MIC/MBC against CF isolates (CLSI, alamar blue); details: Stenotrophomonas maltophilia
Klebsiella pneumoniae = assay: MIC/MBC of nanoemulsions against gram-negative isolates (CLSI, alamar blue); format: cell-based; details: Klebsiella pneumoniae (n = 5)
Acinetobacter baumannii [2] = assay: as above; format: cell-based; details: Acinetobacter baumannii (n = 5)
Burkholderia cepacia = assay: as above; format: cell-based; details: Burkholderia cepacia (n = 5)
Acinetobacter baumannii [3] = assay: MIC/MBC against clinical isolates (CLSI, alamar blue); details: Acinetobacter baumannii
Pseudomonas aeruginosa [4] = assay: MIC/MBC of nanoemulsions against gram-negative isolates (CLSI, alamar blue); format: cell-based; details: Pseudomonas aeruginosa (n = 5)
[5] = tested on: Stenotrophomonas maltophilia; assay: as above; format: cell-based; details: Stenotrophomonas maltophilia (n = 5)
Pseudomonas aeruginosa [6] = assay: MIC/MBC against CF isolates (CLSI, alamar blue); details: Pseudomonas aeruginosa
Burkholderia cenocepacia = assay: MIC/MBC against CF isolates (CLSI, alamar blue); details: Burkholderia cenocepacia
Escherichia coli = assay: MIC/MBC of nanoemulsions against gram-negative isolates (CLSI, alamar blue); format: cell-based; details: Escherichia coli (n = 5)
[7] = nanoemulsions in the presence of 5 mM EDTA
[8] = nanoemulsions in the presence of 5 mM EDTA, in µg/mL
[9] = CF Stenotrophomonas isolate NB41
[10] = CF Stenotrophomonas isolate NB42
[11] = CF Stenotrophomonas isolate NB43
[12] = CF Stenotrophomonas isolate NB44
[13] = CF Stenotrophomonas isolate NB45
[14] = CF Stenotrophomonas isolate Steno 1
[15] = CF Stenotrophomonas isolate Steno 2
[16] = CF Stenotrophomonas isolate Steno 3
[17] = CF Stenotrophomonas isolate Steno 4
[18] = CF Stenotrophomonas isolate Steno 6
[19] = CF Stenotrophomonas isolate Steno 8

CC(C)(O/N=C(\C(=O)N[C@@H]1C(=O)N2C(C(=O)[O-])=C(C[n+]3ccccc3)CS[C@H]12)c1csc(N)n1)C(=O)O [Ceftazidime]
% resistant (Proteus mirabilis): 0.0%
% susceptible (Proteus mirabilis): 100.0%
MIC50 (Proteus mirabilis; [7]): ≤ 1 µg/mL
MIC Range (Proteus mirabilis; [8]): <=1
MIC50 [1]: > 32 µg/mL
MIC90 [1]: > 32 µg/mL
MBC [1, 9]: > 32 µg/mL
MIC [1, 9]: > 32 µg/mL
MBC [1, 10]: > 32 µg/mL
MIC [1, 10]: 8 µg/mL (≈ 14.6 µM)
MBC [1, 11]: > 32 µg/mL
MIC [1, 11]: > 32 µg/mL
MBC [1, 12]: > 32 µg/mL
MIC [1, 12]: > 32 µg/mL
MBC [1, 13]: > 32 µg/mL
MIC [1, 13]: > 32 µg/mL
MBC [1, 14]: > 32 µg/mL
MIC [1, 14]: > 32 µg/mL
MBC [1, 15]: > 32 µg/mL
MIC [1, 15]: > 32 µg/mL
MBC [1, 16]: > 32 µg/mL
MIC [1, 16]: > 32 µg/mL
MBC [1, 17]: 16 µg/mL (≈ 29.3 µM)
MIC [1, 17]: 2 µg/mL (≈ 3.66 µM)
MBC [1, 18]: > 32 µg/mL
MIC [1, 18]: 32 µg/mL (≈ 58.5 µM)
MBC [1, 19]: > 32 µg/mL
MIC [1, 19]: 16 µg/mL (≈ 29.3 µM)
MBC ([1]; read-out: MBC 50, 11 CF Stenotrophomonas isolates): > 32 µg/mL
% resistant (Klebsiella pneumoniae): 20.0%
% susceptible (Klebsiella pneumoniae): 80.0%
MIC50 (Klebsiella pneumoniae; [7]): ≤ 1 µg/mL
% resistant (Acinetobacter baumannii [2]): 20.0%
% susceptible (Acinetobacter baumannii [2]): 80.0%
MIC50 (Acinetobacter baumannii [2]; [7]): 4 µg/mL
% resistant (Burkholderia cepacia): 0.0%
% susceptible (Burkholderia cepacia): 100.0%
MIC50 (Burkholderia cepacia; [7]): 2 µg/mL
MIC Range (Burkholderia cepacia; [8]): 2-4
MIC50 (Acinetobacter baumannii [3]): > 32 µg/mL
MIC90 (Acinetobacter baumannii [3]): > 32 µg/mL
MBC (Acinetobacter baumannii [3]; Acinetobacter isolate NB31): > 32 µg/mL
MIC (Acinetobacter baumannii [3]; Acinetobacter isolate NB31): > 32 µg/mL
MBC (Acinetobacter baumannii [3]; Acinetobacter isolate NB32): > 32 µg/mL
MIC (Acinetobacter baumannii [3]; Acinetobacter isolate NB32): > 32 µg/mL
MBC (Acinetobacter baumannii [3]; Acinetobacter isolate NB33): > 32 µg/mL
MIC (Acinetobacter baumannii [3]; Acinetobacter isolate NB33): > 32 µg/mL
MBC (Acinetobacter baumannii [3]; Acinetobacter isolate NB34): 32 µg/mL (≈ 58.5 µM)
MIC (Acinetobacter baumannii [3]; Acinetobacter isolate NB34): 32 µg/mL (≈ 58.5 µM)
MBC (Acinetobacter baumannii [3]; Acinetobacter isolate NB35): > 32 µg/mL
MIC (Acinetobacter baumannii [3]; Acinetobacter isolate NB35): > 32 µg/mL
MBC (Acinetobacter baumannii [3]; Acinetobacter isolate NB36): 4 µg/mL (≈ 7.32 µM)
MIC (Acinetobacter baumannii [3]; Acinetobacter isolate NB36): 2 µg/mL (≈ 3.66 µM)
MBC (Acinetobacter baumannii [3]; Acinetobacter isolate NB37): 32 µg/mL (≈ 58.5 µM)
MIC (Acinetobacter baumannii [3]; Acinetobacter isolate NB37): 32 µg/mL (≈ 58.5 µM)
MBC (Acinetobacter baumannii [3]; Acinetobacter isolate NB38): > 32 µg/mL
MIC (Acinetobacter baumannii [3]; Acinetobacter isolate NB38): > 32 µg/mL
MBC (Acinetobacter baumannii [3]; Acinetobacter isolate NB39): > 32 µg/mL
MIC (Acinetobacter baumannii [3]; Acinetobacter isolate NB39): 32 µg/mL (≈ 58.5 µM)
MBC (Acinetobacter baumannii [3]; Acinetobacter isolate NB40): > 32 µg/mL
MIC (Acinetobacter baumannii [3]; Acinetobacter isolate NB40): > 32 µg/mL
MBC (Acinetobacter baumannii [3]; read-out: MBC 50, 10 Acinetobacter isolates): > 32 µg/mL
% resistant (Pseudomonas aeruginosa [4]): 0.0%
% susceptible (Pseudomonas aeruginosa [4]): 100.0%
MIC50 (Pseudomonas aeruginosa [4]; [7]): 2 µg/mL
MIC Range (Pseudomonas aeruginosa [4]; [8]): 2-4
% resistant [5]: 40.0/40.0%
% susceptible [5]: 40.0/40.0%
MIC50 [5, 7]: 16 µg/mL
MBC (Pseudomonas aeruginosa [6]; CF Pseudomonas isolate NB12): 512 µg/mL (≈ 937 µM)
MIC (Pseudomonas aeruginosa [6]; CF Pseudomonas isolate NB12): 256 µg/mL (≈ 468 µM)
MBC (Pseudomonas aeruginosa [6]; CF Pseudomonas isolate NB13): 512 µg/mL (≈ 937 µM)
MIC (Pseudomonas aeruginosa [6]; CF Pseudomonas isolate NB13): 512 µg/mL (≈ 937 µM)
MBC (Pseudomonas aeruginosa [6]; CF Pseudomonas isolate NB14): > 1020 µg/mL
MIC (Pseudomonas aeruginosa [6]; CF Pseudomonas isolate NB14): 1020 µg/mL (≈ 1870 µM)
MBC (Pseudomonas aeruginosa [6]; CF Pseudomonas isolate NB15): 512 µg/mL (≈ 937 µM)
MIC (Pseudomonas aeruginosa [6]; CF Pseudomonas isolate NB15): 256 µg/mL (≈ 468 µM)
MBC (Pseudomonas aeruginosa [6]; CF Pseudomonas isolate NB16): > 1020 µg/mL
MIC (Pseudomonas aeruginosa [6]; CF Pseudomonas isolate NB16): 256 µg/mL (≈ 468 µM)
MBC (Pseudomonas aeruginosa [6]; CF Pseudomonas isolate NB19): 1020 µg/mL (≈ 1870 µM)
MIC (Pseudomonas aeruginosa [6]; CF Pseudomonas isolate NB19): 512 µg/mL (≈ 937 µM)
MBC (Pseudomonas aeruginosa [6]; CF Pseudomonas isolate NB20): 512 µg/mL (≈ 937 µM)
MIC (Pseudomonas aeruginosa [6]; CF Pseudomonas isolate NB20): 256 µg/mL (≈ 468 µM)
MBC (Burkholderia cenocepacia; CF Burkholderia isolate NB21): > 32 µg/mL
MIC (Burkholderia cenocepacia; CF Burkholderia isolate NB21): 8 µg/mL (≈ 14.6 µM)
MBC (Burkholderia cenocepacia; CF Burkholderia isolate NB22): > 32 µg/mL
MIC (Burkholderia cenocepacia; CF Burkholderia isolate NB22): 8 µg/mL (≈ 14.6 µM)
MBC (Burkholderia cenocepacia; CF Burkholderia isolate NB23): > 32 µg/mL
MIC (Burkholderia cenocepacia; CF Burkholderia isolate NB23): > 32 µg/mL
MBC (Burkholderia cenocepacia; CF Burkholderia isolate NB24): 32 µg/mL (≈ 58.5 µM)
MIC (Burkholderia cenocepacia; CF Burkholderia isolate NB24): 4 µg/mL (≈ 7.32 µM)
MBC (Burkholderia cenocepacia; CF Burkholderia isolate NB25): 32 µg/mL (≈ 58.5 µM)
MIC (Burkholderia cenocepacia; CF Burkholderia isolate NB25): 16 µg/mL (≈ 29.3 µM)
MBC (Burkholderia cenocepacia; CF Burkholderia isolate NB26): 32 µg/mL (≈ 58.5 µM)
MIC (Burkholderia cenocepacia; CF Burkholderia isolate NB26): 16 µg/mL (≈ 29.3 µM)
MBC (Burkholderia cenocepacia; CF Burkholderia isolate NB27): 16 µg/mL (≈ 29.3 µM)
MIC (Burkholderia cenocepacia; CF Burkholderia isolate NB27): 8 µg/mL (≈ 14.6 µM)
MBC (Burkholderia cenocepacia; CF Burkholderia isolate NB28b): 16 µg/mL (≈ 29.3 µM)
MIC (Burkholderia cenocepacia; CF Burkholderia isolate NB28b): 16 µg/mL (≈ 29.3 µM)
MBC (Burkholderia cenocepacia; CF Burkholderia isolate NB29): > 32 µg/mL
MIC (Burkholderia cenocepacia; CF Burkholderia isolate NB29): 4 µg/mL (≈ 7.32 µM)
MBC (Burkholderia cenocepacia; CF Burkholderia isolate NB30): 2 µg/mL (≈ 3.66 µM)
MIC (Burkholderia cenocepacia; CF Burkholderia isolate NB30): 2 µg/mL (≈ 3.66 µM)
% resistant (Escherichia coli): 20.0%
% susceptible (Escherichia coli): 80.0%
MIC50 (Escherichia coli; [7]): ≤ 1 µg/mL
